Measured values: BindingDB's records for doi:10.1021/cc9000357 (University of Alabama At Birmingham, 2009)

Assays:
[1] = biological target: T1, Probable nicotinate-nucleotide adenylyltransferase (Bacillus anthracis (strain CDC 684 / NRRL 3495), UniProt C3L5T6); experiment: NaMNAT HPLC Enzyme Assay; conditions: pH 7.5; 0 °C
T1 sequence (C3L5T6 whole entry): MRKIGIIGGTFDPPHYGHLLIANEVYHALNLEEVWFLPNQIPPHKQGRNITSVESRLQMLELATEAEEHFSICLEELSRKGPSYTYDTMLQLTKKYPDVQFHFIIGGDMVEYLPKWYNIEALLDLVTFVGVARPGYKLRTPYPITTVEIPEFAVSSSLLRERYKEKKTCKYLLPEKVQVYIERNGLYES
Description: Inhibitory concentration of the compound measured against B. anthracis Nicotinic acid mononucleotide adenylyltransferase (NaMNAT)using HPLC Enzyme Assay

[2] = biological target: T2, NH(3)-dependent NAD(+) synthetase (Bacillus anthracis, UniProt Q81RP3); experiment: NADs HPLC Enzyme Assay; conditions: pH 8.5; 4 °C
T2 sequence (Q81RP3 whole entry): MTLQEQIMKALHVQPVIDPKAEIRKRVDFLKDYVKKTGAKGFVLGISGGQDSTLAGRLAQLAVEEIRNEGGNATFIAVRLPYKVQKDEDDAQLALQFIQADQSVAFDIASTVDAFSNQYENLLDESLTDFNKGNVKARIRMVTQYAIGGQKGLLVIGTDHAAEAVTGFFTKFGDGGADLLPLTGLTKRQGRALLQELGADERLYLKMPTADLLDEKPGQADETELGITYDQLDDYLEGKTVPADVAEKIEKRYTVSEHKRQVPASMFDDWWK
Description: Inhibitory concentration of the compound measured against B. anthracis Nicotinamide adenine dinucleotide synthetase (NADs) using HPLC Enzyme Assay

Work on O=C(Nc1ccc([N+](=O)[O-])cc1)Nc1ccc(S(=O)(=O)Nc2ccc(Cl)c(Cl)c2)cc1 yielded an IC50 [1] of 2 µM and an IC50 [2] of 6.4 µM.
In the case of O=C(Nc1ccc(NS(=O)(=O)c2ccc(C(F)(F)F)cc2)cc1)Nc1cccc([N+](=O)[O-])c1 [1-(3-nitrophenyl)-3-[4-[[4-(trifluoromethyl)phenyl]sulfonylamino]phenyl]urea], the IC50 [2] is reported as 143 µM.
In the case of O=C(Nc1ccc(NS(=O)(=O)c2ccc(Cl)c(Cl)c2)cc1)Nc1ccccc1[N+](=O)[O-] [1-[4-[(3,4-dichlorophenyl)sulfonylamino]phenyl]-3-(2-nitrophenyl)urea], the IC50 [1] is reported as > 600 µM and the IC50 [2] is reported as 443 µM.
With O=C(Nc1ccc(NS(=O)(=O)c2ccc(Cl)c(Cl)c2)cc1)Nc1cccc([N+](=O)[O-])c1 [1-[4-[(3,4-dichlorophenyl)sulfonylamino]phenyl]-3-(3-nitrophenyl)urea] the IC50 [1] was 382 µM and the IC50 [2] was 95.5 µM.
O=C(Nc1ccc(NS(=O)(=O)c2ccc(Cl)c(Cl)c2)cc1)Nc1ccc([N+](=O)[O-])cc1 [1-[4-[(3,4-dichlorophenyl)sulfonylamino]phenyl]-3-(4-nitrophenyl)urea] was tested, and the IC50 [1] was 7.3 µM and the IC50 [2] was 32.7 µM.
With Nc1ccc(S(=O)(=O)Nc2ccc(NC(=O)Nc3ccccc3[N+](=O)[O-])cc2)cc1 [1-[4-[(4-aminophenyl)sulfonylamino]phenyl]-3-(2-nitrophenyl)urea] the IC50 [1] was > 150 µM and the IC50 [2] was 17.1 µM.
Molecule O=C(Nc1ccc(NS(=O)(=O)c2ccc(F)cc2)cc1)Nc1ccc([N+](=O)[O-])cc1 [1-[4-[(4-fluorophenyl)sulfonylamino]phenyl]-3-(4-nitrophenyl)urea] has an IC50 [1] of 370 µM.
